Measurements published in BigSolDB 2.1.

CC(C)(C)c1ccc(OP2OCC3(CO2)COP(Oc2ccc(C(C)(C)C)cc2C(C)(C)C)OC3)c(C(C)(C)C)c1 (stereo not drawn)
Details | solubility (mole fraction)
in ethanol, 303.25 K | 0.000185
in ethanol, 308.15 K | 0.000249
in ethanol, 312.85 K | 0.000324
in ethanol, 318.15 K | 0.000365
in ethanol, 322.95 K | 0.000426
in ethanol, 328.15 K | 0.000534
in ethanol, 332.15 K | 0.000669
in isopropanol, 304.15 K | 0.000296
in isopropanol, 308.35 K | 0.000371
in isopropanol, 313.15 K | 0.000473
in isopropanol, 318.25 K | 0.000657
in isopropanol, 323.15 K | 0.000752
in isopropanol, 327.95 K | 0.00113
in isopropanol, 333.35 K | 0.00163
in methanol, 304.65 K | 5.05e-05
in methanol, 308.25 K | 5.84e-05
in methanol, 312.95 K | 7.84e-05
in methanol, 318.15 K | 0.000119
in methanol, 322.65 K | 0.000154
in n-propanol, 303.15 K | 0.000477
in n-propanol, 308.15 K | 0.000582
in n-propanol, 313.05 K | 0.000735
in n-propanol, 318.25 K | 0.000925
in n-propanol, 322.75 K | 0.00113
in n-propanol, 327.95 K | 0.00146
in n-propanol, 333.15 K | 0.00182
in tert-butanol, 302.95 K | 0.000674
in tert-butanol, 308.05 K | 0.000853
in tert-butanol, 313.15 K | 0.0012
in tert-butanol, 318.45 K | 0.00157
in tert-butanol, 323.05 K | 0.00222
in tert-butanol, 328.45 K | 0.00302
in tert-butanol, 332.95 K | 0.00379
